Our source for the IC50 values is patent publication US20240132464A1, “HETEROCYCLIC COMPOUNDS AS E3 LIGASE INHIBITORS” (Accutar Biotechnology Inc., priority 2022, published 2024).

In this assay the target is T1, GID4 (Uniprot ID: Q81VV7, residues 124-289) (Homo sapiens, UniProt Q8IVV7).
T1 construct: GID4 (Uniprot ID: Q81VV7, residues 124-289)
T1 sequence (Q8IVV7 124-289): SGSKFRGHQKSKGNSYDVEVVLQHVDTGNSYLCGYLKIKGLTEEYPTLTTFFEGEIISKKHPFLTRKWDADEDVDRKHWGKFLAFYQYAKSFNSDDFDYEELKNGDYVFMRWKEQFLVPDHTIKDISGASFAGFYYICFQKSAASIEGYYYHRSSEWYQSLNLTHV
Kind of assay: GID4 competitive binding assay (AlphaScreen, GID4/degron peptide PGLW). To be noted: 24 nM GID4, 48 nM biotinylated degron peptide PGLW, 4° C., read-out: IC50 (Inhibition of GID4/Degron binding by test compounds). The essentials: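 Displacement of biotin-tagged degron tetrapeptide PGLW (48 nM) from C-terminally 6His-tagged GID4 124-289 (24 nM) read by AlphaScreen proximity signal. Compound incubation 2 h, then beads 1 h, all at 4 °C, pH 7.5, 2% DMSO final; background-corrected inhibition fitted with variable slope for IC50.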
For orientation: Alpha assays give light when donor and acceptor beads are brought close together.
With `CNC(=O)c1ccc2nnc(C3CCCN(c4cc(C(C)C)nc(N)n4)C3)n2c1` (stereo not drawn) [Compound 166, 3-(1-(2-amino-6-isopropylpyrimidin-4-yl)piperidin-3-yl)-N-methyl-[1,2,4]triazolo[4,3-a]pyridine-6-carboxamide], the IC50 was over 5 µM.

`CNc1cc(N2CCNC(c3ccccc3Br)C2)nc(N)n1` (stereo not drawn) [Compound 167]: the IC50 was under 0.5 µM.

`CCc1ccccc1C1CN(c2cc(C(C)C)nc(N)n2)CCN1` (stereo not drawn) [Compound 168, 4-(3-(2-ethylphenyl)piperazin-1-yl)-6-isopropylpyrimidin-2-amine]: the IC50 lay in the range of 0.5 to 5 µM.

Consider `CC(C)c1cc(N2CCNC(c3cccc(F)c3Br)C2)nc(N)n1` (stereo not drawn) [Compound 169, 4-(3-(2-bromo-3-fluorophenyl)piperazin-1-yl)-6-isopropylpyrimidin-2-amine], for which the IC50 is under 0.5 µM.

Regarding `CC(C)c1cc(N2CCNC(c3cc(F)c(F)cc3Br)C2)nc(N)n1` (stereo not drawn) [Compound 170, 4-(3-(2-bromo-4,5-difluorophenyl)piperazin-1-yl)-6-isopropylpyrimidin-2-amine], the IC50 lay in the range of 0.5 to 5 µM.

For `COc1ccccc1C1CN(c2cc(C(C)C)nc(N)n2)CCN1` (stereo not drawn) [Compound 171, 4-isopropyl-6-(3-(2-methoxyphenyl)piperazin-1-yl)pyrimidin-2-amine], the IC50 lay within 0.5 to 5 µM.

On to `Nc1cc(N2CCNC(c3ccccc3Br)C2)nc(N)n1` (stereo not drawn) [Compound 172, 6-(3-(2-bromophenyl)piperazin-1-yl)pyrimidine-2,4-diamine], for which the IC50 is under 0.5 µM.

With `CC(C)c1cc(N2CCNC(c3ccc(F)cc3Br)C2)nc(N)n1` (stereo not drawn) [Compound 173, 4-(3-(2-bromo-4-fluorophenyl)piperazin-1-yl)-6-isopropylpyrimidin-2-amine], the IC50 was under 0.5 µM.

On to `CC(C)c1cc(N2CCNC(c3cc(F)ccc3Br)C2)nc(N)n1` (stereo not drawn) [Compound 174, 4-(3-(2-bromo-5-fluorophenyl)piperazin-1-yl)-6-isopropylpyrimidin-2-amine], for which the IC50 fell in the range of 0.5 to 5 µM.

As to `CC(C)c1cc(N2CCNC(c3ccccc3Cl)C2)nc(N)n1` (stereo not drawn) [Compound 175, 4-(3-(2-chlorophenyl)piperazin-1-yl)-6-isopropylpyrimidin-2-amine], the IC50 lay in the range of 0.5 to 5 µM.

On to `CC(C)c1cc(N2CCNC(c3ccccc3I)C2)nc(N)n1` (stereo not drawn) [Compound 176, 4-(3-(2-iodophenyl)piperazin-1-yl)-6-isopropylpyrimidin-2-amine], for which the IC50 was under 0.5 µM.

As for `Cc1ccccc1C1CN(c2cc(C(C)C)nc(N)n2)CCN1` (stereo not drawn) [Compound 177, 4-isopropyl-6-(3-(o-tolyl)piperazin-1-yl)pyrimidin-2-amine], the IC50 was over 5 µM.

Take `CC(C)c1cc(N2CCCC(c3cnc4ccccn34)C2)nc(N)n1` (stereo not drawn) [Compound 178, 4-(3-(imidazo[1,2-a]pyridin-3-yl)piperidin-1-yl)-6-isopropylpyrimidin-2-amine]: the IC50 is under 0.5 µM.

On to `CC(C)c1cc(N(C)CCc2c[nH]c3ccccc23)nc(N)n1` [Compound 179, N4-(2-(1H-indol-3-yl)ethyl)-6-isopropyl-N4-methylpyrimidine-2,4-diamine], for which the IC50 is 0.5 to 5 µM.

Consider `CNc1cc(N2CCCC(c3nnc4ccccn34)C2)nc(N)n1` (stereo not drawn) [Compound 180, 6-(3-([1,2,4]triazolo[4,3-a]pyridin-3-yl)piperidin-1-yl)-N4-methylpyrimidine-2,4-diamine], for which the IC50 was over 5 µM.

In the case of `CC(C)c1cc(N2CCCC(c3nc4ccccc4[nH]3)C2)nc(N)n1` (stereo not drawn) [Compound 181, 4-(3-(1H-benzo[d]imidazol-2-yl)piperidin-1-yl)-6-isopropylpyrimidin-2-amine], the IC50 was over 5 µM.

Regarding `CC(C)c1cc(N2CCn3cncc3C2)nc(N)n1` [Compound 182, 4-(5,6-dihydroimidazo[1,5-a]pyrazin-7(8H)-yl)-6-isopropylpyrimidin-2-amine], the IC50 is over 5 µM.

In the case of `CC(C)c1cc(N2CCNC(c3ccccc3Br)C2)nc(N)n1` (stereo not drawn) [Compound 183, 4-(3-(2-bromophenyl)piperazin-1-yl)-6-isopropylpyrimidin-2-amine], the IC50 was under 0.5 µM.

For the compound `Nc1nc2c(c(N3CCNC(c4ccccc4Br)C3)n1)COCC2` (stereo not drawn) [Compound 184, 4-(3-(2-bromophenyl)piperazin-1-yl)-7,8-dihydro-5H-pyrano[4,3-d]pyrimidin-2-amine], the IC50 was 0.5 to 5 µM.

`Nc1nc2c(c(N3CCNC(c4nnc[nH]4)C3)n1)CSC2` (stereo not drawn) [Compound 185, 4-(3-(4H-1,2,4-triazol-3-yl)piperazin-1-yl)-5,7-dihydrothieno[3,4-d]pyrimidin-2-amine]: the IC50 was 0.5 to 5 µM.

As for `Nc1nc2c(c(N3CCCC(c4cnc5ccccn45)C3)n1)CSC2` (stereo not drawn) [Compound 186, 4-(3-(imidazo[1,2-a]pyridin-3-yl)piperidin-1-yl)-5,7-dihydrothieno[3,4-d]pyrimidin-2-amine], the IC50 is over 5 µM.

With `Nc1nc2c(c(N3CCCC(c4ccn[nH]4)C3)n1)CCCN2` (stereo not drawn) [Compound 187, 4-(3-(1H-pyrazol-5-yl)piperidin-1-yl)-5,6,7,8-tetrahydropyrido[2,3-d]pyrimidin-2-amine], the IC50 was in the range of 0.5 to 5 µM.

For the compound `CC(C)c1cc(N2CCNC(c3nnc4ccccn34)C2)nc(N)n1` (stereo not drawn) [Compound 188, 4-(3-([1,2,4]triazolo[4,3-a]pyridin-3-yl)piperazin-1-yl)-6-isopropylpyrimidin-2-amine], the IC50 is over 5 µM.

On to `Nc1nc2c(c(N3CCNC(c4ccccc4Br)C3)n1)CSC2` (stereo not drawn) [Compound 189, 4-(3-(2-bromophenyl)piperazin-1-yl)-5,7-dihydrothieno[3,4-d]pyrimidin-2-amine], for which the IC50 is over 5 µM.

Take `CNc1nc(C)cc(Nc2cccc(-c3cnccn3)c2)n1` [Compound 190, N2,6-dimethyl-N4-(3-(pyrazin-2-yl)phenyl)pyrimidine-2,4-diamine]: the IC50 was over 5 µM.

Take `Nc1nc2c(c(N3CCCC(c4nnc5ccccn45)C3)n1)SCC2` (stereo not drawn) [Compound 191, 4-(3-([1,2,4]triazolo[4,3-a]pyridin-3-yl)piperidin-1-yl)-6,7-dihydrothieno[3,2-d]pyrimidin-2-amine]: the IC50 is over 5 µM.

`Nc1cc(Nc2cccc(-c3cnccn3)c2)nc(N)n1` [Compound 192, N4-(3-(pyrazin-2-yl)phenyl)pyrimidine-2,4,6-triamine]: the IC50 lay within 0.5 to 5 µM.

Take `Nc1cc(N2CCCC(c3ccn[nH]3)C2)nc(N)n1` (stereo not drawn) [Compound 193, 6-(3-(1H-pyrazol-5-yl)piperidin-1-yl)pyrimidine-2,4-diamine]: the IC50 was over 5 µM.

As for `CC(C)c1cc(N2CCCC(c3nnc4ccccn34)C2)nc(N)n1` (stereo not drawn) [Compound 194, 4-(3-([1,2,4]triazolo[4,3-a]pyridin-3-yl)piperidin-1-yl)-6-isopropylpyrimidin-2-amine], the IC50 lay within 0.5 to 5 µM.

With `Nc1nc2c(c(N3CCCC(c4ccn[nH]4)C3)n1)CCC2` (stereo not drawn) [Compound 195, 4-(3-(1H-pyrazol-5-yl)piperidin-1-yl)-6,7-dihydro-5H-cyclopenta[d]pyrimidin-2-amine], the IC50 is over 5 µM.

`Nc1nc2c(c(N3CCCC(c4ccn[nH]4)C3)n1)COCC2` (stereo not drawn) [Compound 196, 4-(3-(1H-pyrazol-5-yl)piperidin-1-yl)-7,8-dihydro-5H-pyrano[4,3-d]pyrimidin-2-amine]: the IC50 is over 5 µM.

Regarding `CC(C)c1cc(Nc2cccc(CC3CCNC3=O)c2)nc(N)n1` (stereo not drawn) [Compound 197, 3-(3-((2-amino-6-isopropylpyrimidin-4-yl)amino)benzyl)pyrrolidin-2-one], the IC50 is over 5 µM.

With `CC(C)c1cc(Nc2cccc(-c3cnccn3)c2)nc(N)n1` [Compound 198, 6-isopropyl-N4-(3-(pyrazin-2-yl)phenyl)pyrimidine-2,4-diamine], the IC50 was over 5 µM.

On to `Nc1nc2c(c(N3CCCC(c4ccn[nH]4)C3)n1)CSC2` (stereo not drawn) [Compound 199, 4-(3-(1H-pyrazol-5-yl)piperidin-1-yl)-5,7-dihydrothieno[3,4-d]pyrimidin-2-amine], for which the IC50 was over 5 µM.

Consider `CC(C)c1cc(N2CCNC(c3cc(Br)ccc3Br)C2)nc(N)n1` (stereo not drawn) [Compound 200, 4-(3-(2,5-dibromophenyl)piperazin-1-yl)-6-isopropylpyrimidin-2-amine], for which the IC50 fell in the range of 0.5 to 5 µM.

On to `NC(=O)CCC1CCCN(c2nc(N)nc3c2CSC3)C1` (stereo not drawn) [Compound 201, 3-(1-(2-amino-5,7-dihydrothieno[3,4-d]pyrimidin-4-yl)piperidin-3-yl)propanamide], for which the IC50 was over 5 µM.

Consider `Cc1cc(N2CCCC(Nc3ccc(=O)[nH]c3)C2)nc(N)n1` (stereo not drawn) [Compound 202, 5-((1-(2-amino-6-methylpyrimidin-4-yl)piperidin-3-yl)amino)pyridin-2(1H)-one], for which the IC50 was over 5 µM.

For the compound `CC(C)c1cc(NCCc2c[nH]c3ccccc23)nc(N)n1` [Compound 203, N4-(2-(1H-indol-3-yl)ethyl)-6-isopropylpyrimidine-2,4-diamine], the IC50 was over 5 µM.

With `CC(C)c1cc(N2CCNC(c3nnc[nH]3)C2)nc(N)n1` (stereo not drawn) [Compound 204, 4-(3-(4H-1,2,4-triazol-3-yl)piperazin-1-yl)-6-isopropylpyrimidin-2-amine], the IC50 was over 5 µM.

As for `Nc1nc(N2CCCC(c3ccn[nH]3)C2)c2cc[nH]c2n1` (stereo not drawn) [Compound 205, 4-(3-(1H-pyrazol-5-yl)piperidin-1-yl)-7H-pyrrolo[2,3-d]pyrimidin-2-amine], the IC50 is over 5 µM.

For the compound `Nc1nc(N2CCCC(c3ccn[nH]3)C2)c2[nH]ccc2n1` (stereo not drawn) [Compound 206, 4-(3-(1H-pyrazol-5-yl)piperidin-1-yl)-5H-pyrrolo[3,2-d]pyrimidin-2-amine], the IC50 is over 5 µM.

Consider `Nc1nc(N2CCCC(c3ccn[nH]3)C2)c2[nH]cnc2n1` (stereo not drawn) [Compound 207, 6-(3-(1H-pyrazol-5-yl)piperidin-1-yl)-7H-purin-2-amine], for which the IC50 is over 5 µM.
